Experiments:
HGFR autophosphorylation = biological target: T1, HGFR autophosphorylation (Homo sapiens, UniProt P08581); test: Inhibitory activity against the HGFR autophosphorylation using ELISA; type: cell-based; conditions: MKN-45 cells, 1 hr treatment, read-out: IC50 (concentration necessary to inhibit HGFR autophosphorylation activity by 50%)
T1 construct: endogenous in cells; host or cells: MKN-45 human gastric cancer cells
Protocol: Human gastric cancer cells (MKN-45) were suspended in a 1% FBS-containing RPMI1640 medium (purchased from Sigma). The cell suspension (1×10^5 cells/ml) was put in a 96-well plate for cell culture (purchased from NUNC, Production No. 167008) at 0.1 ml/well, and then cultured in a 5% CO2 incubator (37° C.) overnight. After the culture, from each well was removed the supernatant solution, followed by adding 0.05 ml of a 1% FBS-containing RPMI1640 medium. Then, the well was supplied with 0.05 ml of the test substance dissolved in dimethyl sulfoxide (diluted with a 1% FBS-containing RPMI1640 medium), followed by culturing in a 5% CO2 incubator (37° C.) for 1 hr. From each well was removed the supernatant, and each well was washed with 150 μl of PBS, followed by adding 100 μl of a lysis buffer (50 mM Hepes (pH 7.4), 150 mM NaCl, 10% (v/v) glycerol, 1% Triton X-100, 1.5 mM MgCl2, 1 mM EDTA (pH 8.0), 100 mM NaF, 1 mM PMSF, 10 μg/ml Aprotinin, 50 μg/ml Leupeptin, 1 μg/ml Pepstatin A and 1 mM Na3VO4). The plate was shaken at 4° C. for 1 hr to prepare the cell extract.
To a 96-well plate for ELISA (purchased from COSTAR, Production No. 3369) was added 50 μl of 60 mM bicarbonate buffer (pH 9.6) containing 50 μg/ml of an anti-phosphotyrosine antibody (PY20, purchased from Transduction Laboratory, Production No. P-11120). The plate was incubated at 4° C. overnight.
Each well of the plate prepared in 2. was washed three times with 200 μl of PBS, and supplied with 150 μl of 3% BSA/PBS, followed by incubating at room temperature for 2 hrs. Each well was washed three times with 200 μl of PBS, and supplied with 50 μl of the above cell extract, followed by incubating at 4° C. overnight. After the incubation, each well was washed three times with 250 μl of a washing solution (0.1% BSA, 20 mM Tris-HCl (pH 7.6), 137 mM NaCl, and 0.05% Tween-20), and supplied with 70 μl of anti-HGFR antibody (h-Met(C-12), purchased from Santa Cruz, Production No. sc-10) 2,000-fold diluted with a reaction solution (1% BSA, 20 mM Tris-HCl (pH 7.6), 137 mM NaCl and 0.05% Tween-20), followed by incubating at room temperature for 1 hr. The well was washed three times with 250 μl of the washing solution, and supplied with 70 μl of peroxidase-labelled anti-rabbit IgG antibody (purchased from Cell Signaling, Production No. 7074) 2,000-fold diluted with the reaction solution, followed by incubating at room temperature for 1 hr. Each well was washed three times with 250 μl of the washing solution, and supplied with 70 μl of TMB Membrane Peroxidase Substrate (purchased from Funakoshi, Production No. 50-5077-03), followed by incubating at room temperature for 10 min. Each well was supplied with 70 μl of 1 M phosphoric acid, and using the Plate Reader MTP-500 (Corona Electric), the absorbance of the well was instantly determined at a measurement wavelength of 450 nm. While defining the absorbance of a well supplied with the cell extract having no test substance as 100% HGFR autophosphorylation activity, and the absorbance of a well supplied with 50 μl of the lysis buffer as 0% HGFR autophosphorylation activity, the HGFR autophosphorylation activity (%) was calculated for each well. The concentration of the test substance was changed by several levels to calculate HGFR autophosphorylation activities (%) in respective cases, and to calculate the concentration (IC50) of the test substance necessary to inhibit HGFR autophosphorylation activity by 50%.

[1] = tested on: Human pancreatic cancer cells (SUIT-2); test: Inhibitory activity against migration of human pancreatic cancer cells (SUIT-2); type: cell-based; conditions: SUIT-2, Transwell, HGF stimulation, 24 hrs, read-out: IC50 (concentration necessary to inhibit the cell migration activity by 50%)
Protocol: Human pancreatic cancer cells (SUIT-2) were suspended in a 1% FBS-containing RPMI1640 medium (purchased from Sigma) to prepare a cell suspension (8×10^5 cells/ml). To the lower compartment of Transwell (purchased from COSTAR, Production No. 3422) was added 600 μl of a 1% FBS-containing RPMI1640 medium. To the upper compartment were added 50 μl of the above cell suspension and 25 μl of the test substance dissolved in dimethyl sulfoxide (diluted with the 1% FBS-containing RPMI1640 medium), followed by culturing in a 5% CO2 incubator (37° C.) for 1 hr. After the culture, to the upper compartment of each Transwell was added 25 μl of human recombinant hepatocyte growth factor (HGF, purchased from Wako Pure Chemical Industry, Production No. 22949) diluted to 280 ng/ml with a 1% FBS-containing RPMI1640 medium, followed by culturing in a 5% CO2 incubator (37° C.) for 24 hrs. The cells adhering to the lower compartment of each well were counted in five fields by a phase contrast microscope (200×) to calculated an average adhering cell number. While defining the average adhering cell number of a well supplied with […] and no test substance as 100% cell migration activity and the average adhering cell number of a well supplied with no HGFR and no test substance as 0% cell migration activity, the cell migration activity percent (%) was calculated for each well. The concentration of the test substance was varied at several levels to calculate the cell migration activity percent (%) for respective cases, and to calculate the concentration of the test substance necessary to inhibit the cell migration activity by 50% (IC50).

T1 sequence (P08581 25-1390): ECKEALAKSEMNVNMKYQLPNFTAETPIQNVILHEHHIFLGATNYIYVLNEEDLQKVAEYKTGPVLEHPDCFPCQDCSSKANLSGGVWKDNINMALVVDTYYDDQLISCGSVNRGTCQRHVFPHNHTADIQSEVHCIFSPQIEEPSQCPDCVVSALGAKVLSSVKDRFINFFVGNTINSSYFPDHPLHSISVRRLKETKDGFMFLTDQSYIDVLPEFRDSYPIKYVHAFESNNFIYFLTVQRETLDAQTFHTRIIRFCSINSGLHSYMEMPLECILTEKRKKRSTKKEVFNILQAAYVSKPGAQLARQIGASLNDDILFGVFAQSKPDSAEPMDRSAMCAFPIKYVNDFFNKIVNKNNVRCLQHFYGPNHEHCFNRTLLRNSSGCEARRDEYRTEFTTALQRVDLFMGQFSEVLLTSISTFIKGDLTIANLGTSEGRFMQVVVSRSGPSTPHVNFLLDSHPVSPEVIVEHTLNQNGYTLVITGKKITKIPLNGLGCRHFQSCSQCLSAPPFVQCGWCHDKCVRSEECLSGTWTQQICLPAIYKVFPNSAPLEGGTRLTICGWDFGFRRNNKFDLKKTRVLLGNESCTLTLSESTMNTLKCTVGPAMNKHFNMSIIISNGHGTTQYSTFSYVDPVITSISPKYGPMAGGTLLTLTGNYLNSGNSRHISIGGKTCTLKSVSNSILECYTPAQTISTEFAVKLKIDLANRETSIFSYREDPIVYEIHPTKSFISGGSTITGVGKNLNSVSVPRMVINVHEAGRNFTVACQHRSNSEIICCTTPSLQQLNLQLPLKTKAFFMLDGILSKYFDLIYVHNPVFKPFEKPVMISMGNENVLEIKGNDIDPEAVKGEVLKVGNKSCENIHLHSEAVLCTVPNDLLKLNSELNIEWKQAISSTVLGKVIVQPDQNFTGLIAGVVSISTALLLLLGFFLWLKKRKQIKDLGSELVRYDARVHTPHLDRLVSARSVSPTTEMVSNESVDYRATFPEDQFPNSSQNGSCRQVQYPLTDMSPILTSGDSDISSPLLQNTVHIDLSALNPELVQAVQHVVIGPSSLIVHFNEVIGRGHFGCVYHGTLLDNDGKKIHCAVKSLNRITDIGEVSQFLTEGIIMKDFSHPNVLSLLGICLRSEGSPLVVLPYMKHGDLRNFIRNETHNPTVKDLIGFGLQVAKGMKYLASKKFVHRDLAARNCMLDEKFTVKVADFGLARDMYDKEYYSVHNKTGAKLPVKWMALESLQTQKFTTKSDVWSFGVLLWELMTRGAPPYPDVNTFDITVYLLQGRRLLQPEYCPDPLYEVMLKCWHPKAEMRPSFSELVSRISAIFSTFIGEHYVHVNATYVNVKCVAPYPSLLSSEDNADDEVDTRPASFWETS

| IC50 (HGFR autophosphorylation) [µM] | IC50 [1] [µM] | SMILES |
| --- | --- | --- |
| 0.35 |  | CN(C)C(=O)Nc1cc(Oc2ccc(NC(=O)NC(=O)Cc3ccccc3)cc2F)ccn1 [Example 44, 2-[(Dimethylamino)carbonylamino]-4-{2-fluoro-4-[3-(2-phenylacetyl)ureido]phenoxy}pyridine] |
| 0.35 |  | O=C(Cc1ccccc1)NC(=O)Nc1ccc(Oc2ccnc(NC(=O)N3CCC(N4CCCC4)CC3)c2)c(F)c1 [Example 45, 4-{2-Fluoro-4-[3-(2-phenylacetyl)ureido]phenoxy}-2-{[4-(pyrrolidin-1-yl)piperidin-1-yl]carbonylamino}pyridine] |
| 0.26 |  | O=C(Cc1ccccc1)NC(=O)Nc1ccc(Oc2ccnc(NC(=O)N3CCOCC3)c2)c(F)c1 [Example 48, Morpholine-4-carboxylic acid {4-[2-fluoro-4-(3-phenylacetylureido)phenoxy]pyridin-2-yl}amide] |
| 0.28 |  | CN1CCN(C(=O)Nc2cc(Oc3ccc(NC(=O)NC(=O)Cc4ccccc4)cc3F)ccn2)CC1 [Example 50, 4-Methylpiperazine-1-carboxylic acid {4-[2-fluoro-4-(3-phenylacetylureido)phenoxy]pyridin-2-yl}amide] |
| 0.34 |  | CN1CCC(N(C)C(=O)Nc2cc(Oc3ccc(NC(=O)NC(=O)Cc4ccccc4)cc3F)ccn2)CC1 [Example 52, 3-{4-[2-Fluoro-4-(3-phenylacetylureido)phenoxy]pyridin-2-yl]-1-methyl-1-(1-methylpiperidin-4-yl)urea] |
| 0.13 | 0.038 | O=C(CC(=O)Nc1ccc(Oc2ccnc(NC(=O)N3CCCC3)c2)c(F)c1)Nc1ccc(F)cc1 [Example 56, N-(4-Fluorophenyl)-N′-(3-fluoro-4-{2-[(pyrrolidine-1-carbonyl)amino]pyridin-4-yloxy}phenyl)malonamide] |
| 0.11 |  | O=C(CC(=O)Nc1ccc(Oc2ccnc(NC(=O)C3CC3)c2)cc1F)Nc1ccc(F)cc1 [Example 77, N-(4-Fluorophenyl)-N′-{4-[2-(cyclopropanecarbonylamino)pyridin-4-yloxy]-2-fluorophenyl}malonamide] |
| 0.088 |  | O=C(CC(=O)Nc1ccc(Oc2ccnc(NC(=O)N3CCC(N4CCCC4)CC3)c2)cc1F)Nc1ccc(F)cc1 [Example 82, N-(4-Fluorophenyl)-N′-[2-fluoro-4-(2-{[4-(pyrrolidin-1-yl)piperidine-1-carbonyl]amino}pyridin-4-yloxy)phenyl]malonamide] |
| 0.59 |  | Cc1cc(Oc2ccnc(NC(=O)N3CCC(N4CCCC4)CC3)c2)ccc1NC(=O)CC(=O)Nc1ccc(F)cc1 [Example 85, N-(4-Fluorophenyl)-N′-[2-methyl-4-(2-{[(4-pyrrolidin-1-yl)piperidine-1-carbonyl]amino}pyridin-4-yloxy)phenyl]malonamide] |
| 0.049 |  | CN1CCC(N(C)C(=O)Nc2cc(Oc3ccc(NC(=O)CC(=O)Nc4ccc(F)cc4)cc3F)ccn2)CC1 [Example 89, N-(3-Fluoro-4-{2-[3-methyl-3-(1-methylpiperidin-4-yl)ureido]pyridin-4-yloxy}phenyl)-N′-(4-fluorophenyl)malonamide] |
| 0.54 |  | CN1CCCN(C(=O)Nc2cc(Oc3ccc(NC(=O)CC(=O)Nc4ccc(F)cc4)c(F)c3)ccn2)CC1 [Example 92, N-(2-Fluoro-4-{2-[(4-methyl-[1,4]diazepane-1-carbonyl)amino]pyridin-4-yloxy}phenyl)-N′-(4-fluorophenyl)malonamide] |

Further lines, the molecule ahead of its results:

| SMILES | IC50 (HGFR autophosphorylation) [µM] | IC50 [1] [µM] |
| --- | --- | --- |
| O=C(Cc1ccc(F)cc1)NC(=S)Nc1ccc(Oc2cc(NC(=O)N3CCCC3)ncn2)c(F)c1 [Example 3, Pyrrolidine-1-carboxylic acid [6-(2-fluoro-4-{3-[2-(4-fluorophenyl)acetyl]thioureido}phenoxy)pyrimidin-4-yl]amide] | 0.02 | 0.05 |
| O=C(Cc1ccc(F)cc1)NC(=S)Nc1ccc(Oc2ccnc(NC(=O)N3CCCC3)c2)cc1 [Example 9, Pyrrolidine-1-carboxylic acid [4-(4-{3-[2-(4-fluorophenyl)acetyl]thioureido}phenoxy)pyridin-2-yl]amide] | 0.02 |  |
| O=C(Cc1ccccc1)NC(=S)Nc1ccc(Oc2ccnc(NC(=O)N3CCOCC3)c2)c(Cl)c1 [Example 11, 4-{2-Chloro-4-[3-(2-phenylacetyl)thioureido]phenoxy}-2-[(morpholin-4-yl)carbonylamino]pyridine] | 0.043 |  |
| O=C(Cc1ccc(F)cc1)NC(=S)Nc1ccc(Oc2ccnc(NC(=O)N3CCCC3)c2)c(F)c1 [Example 13, 4-(2-Fluoro-4-{3-[2-(4-fluorophenyl)acetyl]thioureido}phenoxy)-2-[(pyrrolidin-1-yl)carbonylamino]pyridine] | 0.0068 | 0.0032 |
| O=C(Cc1ccccc1)NC(=S)Nc1ccc(Oc2ccnc(NC(=O)N3CCC(O)CC3)c2)c(F)c1 [Example 15, 4-{2-Fluoro-4-[3-(2-phenylacetyl)thioureido]phenoxy}-2-[(4-hydroxypiperidin-1-yl)carbonylamino]pyridine] | 0.013 |  |
| CN(C)C(=O)Nc1cc(Oc2ccc(NC(=S)NC(=O)CC3CC4CCC3C4)cc2F)ccn1 (stereo not drawn) [Example 17, 2-[(Dimethylamino)carbonylamino]-4-{2-fluoro-4-[3-(2-norbornaneacetylthio)ureido]phenoxy}pyridine] | 0.12 |  |
| CCN(CC)CCCN(C)C(=O)Nc1cc(Oc2ccc(NC(=S)NC(=O)Cc3ccc(F)cc3)cc2F)ccn1 [Example 22, 1-(3-Diethylaminopropyl)-3-[4-(2-fluoro-4-{3-[2-(4-fluorophenyl)acetyl]thioureido}phenoxy)pyridin-2-yl]-1-methylurea] | < 0.03 |  |
| Cc1cc(NC(=S)NC(=O)Cc2ccc(F)cc2)ccc1Oc1ccnc(NC(=O)N2CCOCC2)c1 [Example 24, Morpholine-4-carboxylic acid (4-{2-methyl-4-[3-(4-fluorophenyl)acetylthioureido]phenoxy}pyridin-2-yl)amide] | 0.069 |  |
| CN1CCC(N(C)C(=O)Nc2cc(Oc3ccc(NC(=S)NC(=O)Cc4ccccc4)cc3F)ccn2)CC1 [Example 28, 3-{4-[2-Fluoro-4-(3-phenylacetylthioureido)phenoxy]pyridin-2-yl}-1-methyl-1-(1-methylpiperidin-4-yl)urea] | 0.019 |  |
| O=C(Cc1ccccc1)NC(=O)Nc1ccc(Oc2ccnc(NC(=O)N3CCCC3)c2)c(F)c1 [Example 43, 4-{2-Fluoro-4-[3-(2-phenylacetyl)ureido]phenoxy}-2-[(pyrrolidin-1-yl)carbonylamino]pyridine] | 0.059 |  |
